Source: patent publication US20030180355A1, “Combination therapy for hypertension” (priority 2001, published 2003)

Tests used:
[1] = test system: conscious renal hypertensive dogs; test: Lercanidipine and enalapril in renal hypertensive dogs (two-kidney, two clip); type: in vivo, beagle dogs
Experimental: Male beagle dogs, 10-12 months old and weighing between 10-11 kg, were used. All dogs were trained for several weeks, to comply unstressfully to the test environment. Chronic sustained hypertension was induced in 4 dogs by bilateral renal artery constriction, according to the Goldblatt method “two-kidney, two clip hypertension”. Briefly, under sodium pentobarbital anaesthesia (35 mg/kg i.v.) during two different surgical interventions 15 days apart from each other, in sterile conditions, both renal arteries were clipped with original renal silver clips and narrowed by about 60-70%. After two months from the last intervention, an experimental renal hypertension was produced and the animals were used for the implantation of catheter.
Under sodium pentobarbital anaesthesia (35 mg/kg i.v.), in sterile conditions, the dogs were catheterized by inserting a sensor tipped catheter (Mikro-Tip) into the ascending aorta through the right femoral artery. The catheter was subcutaneously exteriorized at the back of the neck.
After a week recovery time from surgery, the animals were placed in a dog restrained unit, composed by a frame and a dog sling hammock, and connected to the pressure transducers in order to monitor the arterial blood pressure.
All the animals were alternatively treated with vehicle, lercanidipine, enalapril and the combination of lercanidipine and enalapril. The drugs were administered by oral gavage in a volume of 1 ml/kg at the following dosages:
(2) lercanidipine (0.5 mg/kg)
(4) lercanidipine […] enalapril (0.5 mg/kg +3 mg/kg)
Blood pressure (systolic and diastolic) was monitored up to 6 h after the administration. Statistical analysis was performed from time 0 to time 360 min. To evaluate the statistical differences among the treatments, data were analyzed using a three-way ANOVA with repeated measures on factor time and pre-planned multiple comparisons. Statistical analysis was performed by means of GLM (general linear model procedure) with SAS software version 6.12.

isolated rat aorta = conditions: in vitro; even after the drug has been removed for 6 hours; cited from earlier work
[2] = lercanidipine 0.5 mg/kg oral, 15 min
[3] = lercanidipine 0.5 mg/kg oral, 30 min
[4] = lercanidipine 0.5 mg/kg oral, 45 min
[5] = lercanidipine 0.5 mg/kg oral, 60 min
[6] = lercanidipine 0.5 mg/kg oral, 90 min
[7] = lercanidipine 0.5 mg/kg oral, 120 min
[8] = lercanidipine 0.5 mg/kg oral, 150 min
[9] = lercanidipine 0.5 mg/kg oral, 180 min
[10] = lercanidipine 0.5 mg/kg oral, 240 min
[11] = lercanidipine 0.5 mg/kg oral, 360 min
[12] = lercanidipine 0.5 mg/kg oral, Basal
[13] = enalapril 3 mg/kg oral, 120 min
[14] = enalapril 3 mg/kg oral, 150 min
[15] = enalapril 3 mg/kg oral, 180 min
[16] = enalapril 3 mg/kg oral, 240 min
[17] = enalapril 3 mg/kg oral, 360 min

## COC(=O)C1=C(C)NC(C)=C(C(=O)OC(C)(C)CN(C)CCC(c2ccccc2)c2ccccc2)C1c1cccc([N+](=O)[O-])c1 (stereo not drawn) [lercanidipine, methyl 1,1,N-trimethyl-N-(3,3-diphenylpropyl)-2-aminoethyl 1,4-dihydro-2,6-dimethyl-4-(3-nitrophenyl)pyridine-3,5-dicarboxylate]
[1]; [2]
  DBP (diastolic blood pressure): 107.0 ± 5.8 mmHg
  SBP (systolic blood pressure): 152.5 ± 6.6 mmHg
[1]; [3]
  DBP (diastolic blood pressure): 95.3 ± 3.6 c mmHg
  SBP (systolic blood pressure): 142.5 ± 4.8 b mmHg
[1]; [4]
  DBP (diastolic blood pressure): 89.0 ± 4.8 c mmHg
  SBP (systolic blood pressure): 138.3 ± 5.1 c mmHg
[1]; [5]
  DBP (diastolic blood pressure): 87.5 ± 6.3 c mmHg
  SBP (systolic blood pressure): 142.3 ± 7.4 a mmHg
[1]; [6]
  DBP (diastolic blood pressure): 87.3 ± 5.3 c mmHg
  SBP (systolic blood pressure): 138.3 ± 5.7 c mmHg
[1]; [7]
  DBP (diastolic blood pressure): 93.0 ± 5.6 c mmHg
  SBP (systolic blood pressure): 140.5 ± 5.9 b mmHg
[1]; [8]
  DBP (diastolic blood pressure): 94.0 ± 7.2 c mmHg
  SBP (systolic blood pressure): 139.3 ± 10.1 c mmHg
[1]; [9]
  DBP (diastolic blood pressure): 96.8 ± 5.1 c mmHg
  SBP (systolic blood pressure): 141.0 ± 7.2 b mmHg
[1]; [10]
  DBP (diastolic blood pressure): 104.0 ± 5.0 a mmHg
  SBP (systolic blood pressure): 144.8 ± 6.8 a mmHg
[1]; [11]
  DBP (diastolic blood pressure): 108.0 ± 3.5 mmHg
  SBP (systolic blood pressure): 150.0 ± 6.8 mmHg
[1]; [12]
  DBP (diastolic blood pressure): 117.5 ± 5.2 mmHg
  SBP (systolic blood pressure): 161.3 ± 3.8 mmHg
Isolated rat aorta
  isolated rat aorta response to high K+: attenuated

## CCOC(=O)[C@H](CCc1ccccc1)N[C@@H](C)C(=O)N1CCC[C@H]1C(=O)O [enalapril, (S)-1-[N-1-(ethoxycarbonyl)-3-phenylpropyl]-L-alanyl-L-proline]
[1]; enalapril 3 mg/kg oral, 15 min
  DBP (diastolic blood pressure): 114.5 ± 4.9 mmHg
  SBP (systolic blood pressure): 162.8 ± 4.8 mmHg
[1]; enalapril 3 mg/kg oral, 30 min
  DBP (diastolic blood pressure): 114.0 ± 4.7 mmHg
  SBP (systolic blood pressure): 160.3 ± 4.1 mmHg
[1]; enalapril 3 mg/kg oral, 45 min
  DBP (diastolic blood pressure): 110.3 ± 4.7 mmHg
  SBP (systolic blood pressure): 158.0 ± 5.6 mmHg
[1]; enalapril 3 mg/kg oral, 60 min
  DBP (diastolic blood pressure): 105.3 ± 5.6 a mmHg
  SBP (systolic blood pressure): 158.0 ± 6.4 mmHg
[1]; enalapril 3 mg/kg oral, 90 min
  DBP (diastolic blood pressure): 107.5 ± 3.2 mmHg
  SBP (systolic blood pressure): 159.0 ± 5.8 mmHg
[1]; [13]
  DBP (diastolic blood pressure): 105.0 ± 5.3 b mmHg
  SBP (systolic blood pressure): 153.5 ± 7.5 mmHg
[1]; [14]
  DBP (diastolic blood pressure): 108.3 ± 4.5 a mmHg
  SBP (systolic blood pressure): 158.5 ± 5.7 mmHg
[1]; [15]
  DBP (diastolic blood pressure): 110.5 ± 3.6 mmHg
  SBP (systolic blood pressure): 158.8 ± 5.5 mmHg
[1]; [16]
  DBP (diastolic blood pressure): 116.0 ± 3.3 mmHg
  SBP (systolic blood pressure): 161.3 ± 7.2 mmHg
[1]; [17]
  DBP (diastolic blood pressure): 111.8 ± 4.3 mmHg
  SBP (systolic blood pressure): 158.8 ± 5.9 mmHg
[1]; enalapril 3 mg/kg oral, Basal
  DBP (diastolic blood pressure): 120.0 ± 4.2 mmHg
  SBP (systolic blood pressure): 164.8 ± 3.5 mmHg
